In patent US10457663B2, “Pyrazol-pyridine derivatives” (Hoffmann-La Roche Inc., priority 2016, dated 2019):

Molecular target: T1, human EAAT3 (Homo sapiens, UniProt P43005)
T1 construct: expressed in transfected cells; host or cells: HEK-293
T1 sequence (P43005 1-524): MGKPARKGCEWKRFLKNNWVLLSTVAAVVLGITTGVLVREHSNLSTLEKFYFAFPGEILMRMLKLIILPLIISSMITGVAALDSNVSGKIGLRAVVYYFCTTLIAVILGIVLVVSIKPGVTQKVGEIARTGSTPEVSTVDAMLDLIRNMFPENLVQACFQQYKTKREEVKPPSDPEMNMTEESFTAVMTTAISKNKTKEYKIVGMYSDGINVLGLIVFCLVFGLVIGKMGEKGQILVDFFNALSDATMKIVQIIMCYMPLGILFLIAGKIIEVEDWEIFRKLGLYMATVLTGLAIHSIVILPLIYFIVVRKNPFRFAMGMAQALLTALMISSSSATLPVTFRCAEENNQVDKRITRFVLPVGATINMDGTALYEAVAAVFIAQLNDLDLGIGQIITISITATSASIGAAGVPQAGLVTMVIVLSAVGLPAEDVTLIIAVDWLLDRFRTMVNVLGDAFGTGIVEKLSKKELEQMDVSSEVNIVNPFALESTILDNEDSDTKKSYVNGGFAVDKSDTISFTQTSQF
Experiment: FLIPR Membrane Potential (FMP) assay
Format: cell-based
Conditions: HEK-293 cells stably expressing human EAAT3; L-glutamate as agonist at EC80; antagonist applied 15 min before; Kb by Cheng-Prusoff from IC50
Protocol: The FLIPR Membrane Potential (FMP) assay
HEK-293 cells stably expressing human EAAT3 were seeded at 55 000 cells/well in growth medium (DMEM glutamate free (Invitrogen 11960-044), 1% Pen Strep (10 ml/l GIBCO BRL N^o 15140-023), 10% FCS non dialysed heat inactivated, 5 mg/l puromycin) in poly-D-lysine treated 96-well black microtiter plates with clear-bottom. After 24 h, the growth medium was removed and 100 μl/well of Krebs buffer (140 mM NaCl, 4.7 mM KCl, 2.5 mM CaCl2), 1.2 mM MgCl2, 11 mM HEPES, 10 mM D-glucose, pH=7.4) added. The cells were then loaded by adding 100 μl/well FMP assay dye (FLIPR Membrane Potential assay reagent, Molecular Devices). The 96-well plates were then incubated at 37° C. for 1 h. The depolarization of the cells will cause more dye to enter in the cells, where it will bind to intracellular proteins and lipids and cause an increase in the fluorescence signal. Antagonist potency at human EAAT3 was determined by using L-glutamate as agonist at a concentration which gives 80% of the maximum response. The antagonists were applied 15 min before the application of the agonist L-glutamate. The assays were performed at room temperature and measurements done by using a Fluorometric Imaging Plate Reader (FLIPR, Molecular Devices) and filter #2. Responses were measured as peak increase in fluorescence minus basal (i.e. fluorescence without addition of L-glutamate). Kb was determined using the Cheng-Prusoff equation Kb=IC50/[1+(A/EC50)], where IC50 is the concentration of the antagonist producing 50% inhibition, A is the concentration of the agonist against which the IC50 is being determined (at EC80) and EC50 is the concentration of the agonist producing 50% […].

Kb [nM]	Compound
530	CC(C)n1nccc1-c1cc(C(=O)NC2(C)CCS(=O)(=O)C2)cc(-c2ccc(F)cc2)n1 (racemic) [Example 43, (RS)-2-(4-Fluorophenyl)-N-(3-methyl-1,1-dioxothiolan-3-yl)-6-(2-propan-2-yl-pyrazol-3-yl)-pyridine-4-carboxamide]
110	CC(C)(C)NC(=O)c1cc(-c2ccc(C3CC3)cc2)nc(-c2ccnn2C(C)(C)C)c1 [Example 17, N-tert-Butyl-2-(2-tert-butyl-pyrazol-3-yl)-6-(4-cyclopropyl-phenyl)-pyridine-4-carboxamide]
89	CC(C)(C)NC(=O)c1cc(-c2ccc(C#N)cc2)nc(-c2ccnn2C(C)(C)C)c1 [Example 18, N-tert-Butyl-2-(2-tert-butyl-pyrazol-3-yl)-6-(4-cyano-phenyl)-pyridine-4-carboxamide]
110	CC(C)(C)NC(=O)c1cc(-c2ccc(F)c(Cl)c2)nc(-c2ccnn2C(C)(C)C)c1 [Example 21, N-tert-Butyl-2-(2-tert-butyl-pyrazol-3-yl)-6-(3-chloro-4-fluoro-phenyl)-pyridine-4-carboxamide]
85	COc1ccc(-c2cc(C(=O)NC(C)(C)C)cc(-c3ccnn3C(C)(C)C)n2)cc1 [Example 23, N-tert-Butyl-2-(2-tert-butyl-pyrazol-3-yl)-6-(4-methoxy-phenyl)-pyridine-4-carboxamide]
74	Cc1cc(-c2cc(C(=O)NC(C)(C)C)cc(-c3ccnn3C(C)(C)C)n2)ccc1F [Example 25, N-tert-Butyl-2-(2-tert-butyl-pyrazol-3-yl)-6-(4-fluoro-3-methyl-phenyl)-pyridine-4-carboxamide]
560	CC(C)n1nccc1-c1cc(C(=O)NC(C)(C)C)cc(-c2ccc(C3CC3)cc2)n1 [Example 29, N-tert-Butyl-2-(4-cyclopropyl-phenyl)-6-(2-propan-2-yl-pyrazol-3-yl)-pyridine-4-carboxamide]
1870	CC(C)n1nccc1-c1cc(C(=O)NC(C)(C)C)cc(-c2ccc(C#N)cc2)n1 [Example 30, N-tert-Butyl-2-(4-cyano-phenyl)-6-(2-propan-2-yl-pyrazol-3-yl)-pyridine-4-carboxamide]
240	CC(C)n1nccc1-c1cc(C(=O)NC(C)(C)C)cc(-c2ccc(F)c(F)c2)n1 [Example 31, N-tert-Butyl-2-(3,4-difluoro-phenyl)-6-(2-propan-2-yl-pyrazol-3-yl)-pyridine-4-carboxamide]
1180	CC(C)c1ccc(-c2cc(C(=O)NC(C)(C)C)cc(-c3ccnn3C(C)C)n2)cc1 [Example 32, N-tert-Butyl-2-(4-propan-2-yl-phenyl)-6-(2-propan-2-yl-pyrazol-3-yl)-pyridine-4-carboxamide]
530	CC(C)n1nccc1-c1cc(C(=O)NC(C)(C)C)cc(-c2ccc(F)c(Cl)c2)n1 [Example 33, N-tert-Butyl-2-(3-chloro-4-fluorophenyl)-6-(2-propan-2-yl-pyrazol-3-yl)-pyridine-4-carboxamide]
260	Cc1ccc(-c2cc(C(=O)NC(C)(C)C)cc(-c3ccnn3C(C)C)n2)cc1 [Example 34, N-tert-Butyl-2-(4-methyl-phenyl)-6-(2-propan-2-yl-pyrazol-3-yl)-pyridine-4-carboxamide]
360	COc1ccc(-c2cc(C(=O)NC(C)(C)C)cc(-c3ccnn3C(C)C)n2)cc1 [Example 35, N-tert-Butyl-2-(4-methoxy-phenyl)-6-(2-propan-2-yl-pyrazol-3-yl)-pyridine-4-carboxamide]
230	CC(C)n1nccc1-c1cc(C(=O)NC(C)(C)C)cc(-c2ccc(Cl)c(F)c2)n1 [Example 36, N-tert-Butyl-2-(4-chloro-3-fluorophenyl)-6-(2-propan-2-yl-pyrazol-3-yl)-pyridine-4-carboxamide]
400	Cc1ccc(-c2cc(C(=O)NC(C)(C)C)cc(-c3ccnn3C(C)C)n2)cc1F [Example 38, N-tert-Butyl-2-(3-fluoro-4-methyl-phenyl)-6-(2-propan-2-yl-pyrazol-3-yl)-pyridine-4-carboxamide]
